Experimental data published in US8999983B2, “Modulators of Hec1 activity and methods therefor” (Taivex Therapeutics Corporation, priority 2011, dated 2015).

Key:
MDA-MB-468 = test: Antiproliferation assay (MTS), MDA-MB-468 cells; format: cell-based; conditions: Homo sapiens, MDA-MB-468, 96 h, Table 1, read-out: Antiproliferative IC50 MDA-MB-468
In short: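 Cells seeded after overnight attachment were treated in triplicate for 96 h at 37 °C, 5% CO2, final DMSO below 1%. Viability read by MTS absorbance; concentration-response curves fitted by linear regression against DMSO controls.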

[1] = tested on: caspase-3, PARP, Mcl-1 and XIAP; test: Immunoblot of apoptotic pathway proteins; format: cell-based; conditions: 1 μM, 24 or 48 hours
Protocol: Immunoblot Analysis: For immunoblotting experiments, cells were plated in a 6-well culture plate and cultured overnight. Cells were incubated with the test compounds for the indicated time and whole cell lysate was harvested by adding 1×SDS-PAGE Sample Buffer (62.5 mM Tris-HCl (pH 6.8 at 25° C.), 2% w/v SDS, 10% glycerol, 50 mM DTT, and 0.01% w/v bromophenol blue or phenol red). Proteins were separated by SDS-PAGE electrophoresis and transferred to PVDF membrane. Protein expression was immunoblotted using various primary antibodies and detected using Immobilon Western Chemiluminescent HRP Substrate (Millipore, Billerica Mass. 01821 USA). Antibodies used include anti-Cleaved Caspase3, (Rabbit, Cell Signaling Technology, Danvers Mass. 01923 USA); anti-PARP (Rabbit, Cell Signaling Technology, Danvers Mass. 01923 USA); anti-MCL-1 (mouse, BD Biosciences, San Jose Calif. 95131 USA); anti-XIAP (rabbit, Cell Signaling Technology, Danvers Mass. 01923 USA); anti-Bcl-2 (mouse, Santa Cruz Biotechnology, Santa Cruz Calif. 95060); anti-Cyclin BI (mouse, BD Biosciences, San Jose Calif. 95131 USA); anti-Cyclin D1 (mouse, Santa Cruz Biotechnology, Santa Cruz Calif. 95060); Anti-Nek2 (mouse, BD Biosciences, San Jose Calif. 95131 USA); Anti-HEC1, (rabbit, GeneTex, Inc., Irvine Calif. 92606 USA); and anti-actin (mouse, Millipore, Billerica Mass. 01821 USA).
100 nM Taxol was used as a positive control drug for apoptosis.

Caco-2 cell monolayers = test: Caco-2 cell permeability; format: in vitro ADME; conditions: 2 hour
Protocol: Here, Caco-2 cell line (cat. HTB-37TM) was purchased from the ATCC. Cells were cultivated in T-75 flasks in a cell culture incubator set at 37° C., 5% CO2, 95% relative humidity. Cells were allowed to grow to reach 80-90% confluence before seeding. […] The cells were grown in culture medium consisting of Dulbecco's modified Eagle's medium supplemented with 10% fetal bovine serum, 100 U/mL penicillin and 100 μg/mL streptomycin. The culture medium was replaced every 2 days and the cells were maintained at 37° C., 95% relative humidity and 5% CO2.
For a quality integrity control of the monolayers of seeded cells, the Lucifer yellow (LY) transport experiment was performed to evaluate monolayer integrity. As for a quality control of each filter, the transepithelial electrical resistance (TEER) was measured before the start of and at the end of transport experiments. Physiologically and morphologically well developed Caco-2 cell monolayers with TEER values greater than 400 Ωcm^2 were used for the studies.
The solution volumes in apical and basolateral chambers were set to 0.4 and 0.6 ml respectively. Samples were taken from both the apical and basolateral compartment at the end of the 2 hour incubation at 37° C. […] The excitation and emission wavelengths were 490 nm and 530 nm, respectively.

In the case of COCCOc1cnc(Sc2cc(C)c(-c3csc(NC(=O)c4ccncc4)n3)c(C)c2)cn1 [Compound 27, N-(4-{4-(5-(2-methoxyethoxy)pyrazin-2-ylthio)-2,6-dimethylphenyl}thiazol-2-yl)isonicotinamide], the IC50 (MDA-MB-468) is reported as 19.1 nM, the “levels of apoptotic (caspase-3, PARP) and anti-apoptotic (Mcl-1, XIAP) proteins” value [1] is reported as “cleavage of the apoptotic proteins accompanied by down-regulation of the anti-apoptotic proteins” and the Caco-2 permeability (Caco-2 cell monolayers; 10 μM, both directions) is reported as “moderate Caco-2 permeability”. For the same compound, the active efflux (Caco-2 cell monolayers; Caco-2, 10 μM) was “no indication of significant active efflux”.
